Laboratory results: the kinase profiling compilation of Christmann-Franck et al. (2016)

Legend:
Assay in all cases: radiometric filter-binding kinase assay, Kinase HotSpot
Conditions in all cases: compound 0.5 µM; ATP 10 µM
PRKCZ (human) = PRKCZ (human) (UniProt Q05513)
NEK11 (human) = NEK11 (human) (UniProt Q8NG66)
MAPK9 (human) = MAPK9 (human) (UniProt P45984)
CAMK4 (human) = CAMK4 (human) (UniProt Q16566)
MET (human) = MET (human) (UniProt P08581)
PAK6 (human) = PAK6 (human) (UniProt Q9NQU5)
HIPK2 (human) = HIPK2 (human) (UniProt Q9H2X6)
NTRK2 (human) = NTRK2 (human) (UniProt Q16620)
CDC42BPB (human) = CDC42BPB (human) (UniProt Q9Y5S2)
VRK1 (human) = VRK1 (human) (UniProt Q99986)
MAP3K3 (human) = MAP3K3 (human) (UniProt Q99759)
MAP3K11 (human) = MAP3K11 (human) (UniProt Q16584)
PAK3 (human) = PAK3 (human) (UniProt O75914)
TXK (human) = TXK (human) (UniProt P42681)
STK11 (human) = STK11 (human) (UniProt Q15831)
RPS6KA5 KD2 (human) = RPS6KA5 KD2 (human) (UniProt O75582)
DAPK3 (human) = DAPK3 (human) (UniProt O43293)
MYLK2 (human) = MYLK2 (human) (UniProt Q9H1R3)
RET (human) = RET (human) (UniProt P07949)
STK24 (human) = STK24 (human) (UniProt Q9Y6E0)
PRKCB2 (human) = PRKCB2 (human) (UniProt P05771)
MELK (human) = MELK (human) (UniProt Q14680)
MAPKAPK5 (human) = MAPKAPK5 (human) (UniProt Q8IW41)
Sequence of MAPKAPK5 (human) (Q8IW41 whole entry, looked up): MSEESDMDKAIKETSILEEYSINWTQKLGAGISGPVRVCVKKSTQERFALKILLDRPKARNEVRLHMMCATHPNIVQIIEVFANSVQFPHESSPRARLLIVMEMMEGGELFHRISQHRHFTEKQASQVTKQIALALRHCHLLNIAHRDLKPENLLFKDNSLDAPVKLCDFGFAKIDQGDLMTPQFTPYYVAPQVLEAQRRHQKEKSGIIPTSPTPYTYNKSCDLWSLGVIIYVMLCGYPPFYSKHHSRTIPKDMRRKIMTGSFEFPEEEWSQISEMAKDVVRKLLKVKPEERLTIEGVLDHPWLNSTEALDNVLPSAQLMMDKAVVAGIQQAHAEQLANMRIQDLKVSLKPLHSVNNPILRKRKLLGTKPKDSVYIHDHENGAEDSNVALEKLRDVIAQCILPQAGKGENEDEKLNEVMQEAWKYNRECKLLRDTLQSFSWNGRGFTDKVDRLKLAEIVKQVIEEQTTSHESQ

BRSK1 (human) = BRSK1 (human) (UniProt Q8TDC3)
EPHA4 (human) = EPHA4 (human) (UniProt P54764)
ADRBK2 (human) = ADRBK2 (human) (UniProt P35626)
HIPK4 (human) = HIPK4 (human) (UniProt Q8NE63)
ZAP70 (human) = ZAP70 (human) (UniProt P43403)
ROCK2 (human) = ROCK2 (human) (UniProt O75116)
IGF1R (human) = IGF1R (human) (UniProt P08069)
MARK4 (human) = MARK4 (human) (UniProt Q96L34)
CAMKK1 (human) = CAMKK1 (human) (UniProt Q8N5S9)
ALK (human) = ALK (human) (UniProt Q9UM73)
Sequence of ALK (human) (Q9UM73 whole entry, looked up): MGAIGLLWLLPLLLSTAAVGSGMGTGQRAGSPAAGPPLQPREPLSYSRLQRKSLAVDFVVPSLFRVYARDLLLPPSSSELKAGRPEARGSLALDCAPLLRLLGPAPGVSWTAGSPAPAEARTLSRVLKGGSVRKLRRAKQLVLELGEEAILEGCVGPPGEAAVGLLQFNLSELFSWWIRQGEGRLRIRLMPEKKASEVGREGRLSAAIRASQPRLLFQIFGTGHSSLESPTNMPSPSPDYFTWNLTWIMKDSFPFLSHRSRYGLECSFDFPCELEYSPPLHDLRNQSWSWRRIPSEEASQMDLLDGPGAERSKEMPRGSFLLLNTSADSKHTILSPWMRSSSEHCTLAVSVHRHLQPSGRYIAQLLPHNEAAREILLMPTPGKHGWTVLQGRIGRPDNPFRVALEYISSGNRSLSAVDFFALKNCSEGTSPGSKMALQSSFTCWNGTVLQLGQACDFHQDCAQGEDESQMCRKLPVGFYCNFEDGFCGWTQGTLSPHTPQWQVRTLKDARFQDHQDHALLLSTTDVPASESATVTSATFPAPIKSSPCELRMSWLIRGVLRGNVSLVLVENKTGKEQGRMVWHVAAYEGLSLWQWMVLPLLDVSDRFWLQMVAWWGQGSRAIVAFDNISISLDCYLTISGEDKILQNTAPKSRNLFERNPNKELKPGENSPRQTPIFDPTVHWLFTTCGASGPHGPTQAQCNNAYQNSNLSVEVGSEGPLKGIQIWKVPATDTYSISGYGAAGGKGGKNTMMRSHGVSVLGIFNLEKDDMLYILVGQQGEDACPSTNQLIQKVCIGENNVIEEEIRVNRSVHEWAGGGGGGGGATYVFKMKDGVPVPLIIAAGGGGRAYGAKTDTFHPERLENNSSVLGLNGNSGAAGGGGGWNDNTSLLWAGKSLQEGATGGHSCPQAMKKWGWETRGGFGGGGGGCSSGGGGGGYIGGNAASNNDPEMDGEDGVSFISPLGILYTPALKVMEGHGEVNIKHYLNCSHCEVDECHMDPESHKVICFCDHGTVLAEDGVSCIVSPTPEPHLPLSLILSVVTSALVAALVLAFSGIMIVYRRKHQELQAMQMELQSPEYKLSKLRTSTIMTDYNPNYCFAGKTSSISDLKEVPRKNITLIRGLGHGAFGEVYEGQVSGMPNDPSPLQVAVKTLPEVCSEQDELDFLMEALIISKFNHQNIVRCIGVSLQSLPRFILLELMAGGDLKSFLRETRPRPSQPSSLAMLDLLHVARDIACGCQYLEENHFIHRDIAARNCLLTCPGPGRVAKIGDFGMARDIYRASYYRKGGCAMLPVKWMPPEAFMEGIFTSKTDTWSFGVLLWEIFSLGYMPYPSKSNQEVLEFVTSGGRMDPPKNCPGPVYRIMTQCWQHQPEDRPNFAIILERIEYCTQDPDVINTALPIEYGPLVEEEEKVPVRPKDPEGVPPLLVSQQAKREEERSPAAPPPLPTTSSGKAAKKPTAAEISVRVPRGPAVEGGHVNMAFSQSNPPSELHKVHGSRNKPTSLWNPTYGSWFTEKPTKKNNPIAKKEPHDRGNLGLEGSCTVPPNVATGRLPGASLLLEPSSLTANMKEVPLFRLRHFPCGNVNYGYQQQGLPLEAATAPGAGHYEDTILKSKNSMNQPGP

PRKCE (human) = PRKCE (human) (UniProt Q02156)
MKNK2 (human) = MKNK2 (human) (UniProt Q9HBH9)
MARK1 (human) = MARK1 (human) (UniProt Q9P0L2)
Sequence of MARK1 (human) (Q9P0L2 whole entry, looked up): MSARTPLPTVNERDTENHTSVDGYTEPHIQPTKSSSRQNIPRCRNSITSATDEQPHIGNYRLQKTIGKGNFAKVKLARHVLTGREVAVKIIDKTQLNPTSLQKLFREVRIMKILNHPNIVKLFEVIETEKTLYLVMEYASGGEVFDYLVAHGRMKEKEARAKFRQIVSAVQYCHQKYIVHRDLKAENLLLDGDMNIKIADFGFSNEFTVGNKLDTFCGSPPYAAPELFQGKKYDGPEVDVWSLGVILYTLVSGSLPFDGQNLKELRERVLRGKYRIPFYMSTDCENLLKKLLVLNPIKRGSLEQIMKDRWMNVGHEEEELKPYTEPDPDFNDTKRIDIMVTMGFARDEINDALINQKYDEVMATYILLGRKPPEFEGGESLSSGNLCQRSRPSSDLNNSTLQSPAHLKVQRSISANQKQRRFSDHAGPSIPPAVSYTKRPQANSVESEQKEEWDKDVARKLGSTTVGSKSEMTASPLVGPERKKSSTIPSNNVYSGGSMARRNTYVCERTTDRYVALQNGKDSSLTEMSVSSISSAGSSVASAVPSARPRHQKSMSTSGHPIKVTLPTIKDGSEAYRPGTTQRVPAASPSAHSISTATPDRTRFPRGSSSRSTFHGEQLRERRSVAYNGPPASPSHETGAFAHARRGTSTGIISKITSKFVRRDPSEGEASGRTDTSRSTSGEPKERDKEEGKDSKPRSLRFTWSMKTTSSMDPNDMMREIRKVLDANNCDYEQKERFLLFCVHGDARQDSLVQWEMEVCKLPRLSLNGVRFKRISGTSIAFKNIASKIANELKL

CDK2 CCNA2 (human) = CDK2 CCNA2 (human) (UniProt P24941+P20248)
SGK2 (human) = SGK2 (human) (UniProt Q9HBY8)
PHKG1 (human) = PHKG1 (human) (UniProt Q16816)
Sequence of PHKG1 (human) (Q16816 whole entry, looked up): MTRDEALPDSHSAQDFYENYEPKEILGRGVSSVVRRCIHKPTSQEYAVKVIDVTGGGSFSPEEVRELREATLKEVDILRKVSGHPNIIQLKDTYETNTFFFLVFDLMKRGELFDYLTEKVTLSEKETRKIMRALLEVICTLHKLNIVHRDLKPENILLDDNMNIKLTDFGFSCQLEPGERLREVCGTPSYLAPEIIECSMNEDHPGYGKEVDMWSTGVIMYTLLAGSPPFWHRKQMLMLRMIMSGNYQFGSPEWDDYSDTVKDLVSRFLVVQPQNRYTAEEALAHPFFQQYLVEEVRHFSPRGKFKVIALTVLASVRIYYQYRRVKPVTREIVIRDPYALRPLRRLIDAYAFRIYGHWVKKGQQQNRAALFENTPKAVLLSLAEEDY

WNK3 (human) = WNK3 (human) (UniProt Q9BYP7)
WEE1 (human) = WEE1 (human) (UniProt P30291)
Sequence of WEE1 (human) (P30291 whole entry, looked up): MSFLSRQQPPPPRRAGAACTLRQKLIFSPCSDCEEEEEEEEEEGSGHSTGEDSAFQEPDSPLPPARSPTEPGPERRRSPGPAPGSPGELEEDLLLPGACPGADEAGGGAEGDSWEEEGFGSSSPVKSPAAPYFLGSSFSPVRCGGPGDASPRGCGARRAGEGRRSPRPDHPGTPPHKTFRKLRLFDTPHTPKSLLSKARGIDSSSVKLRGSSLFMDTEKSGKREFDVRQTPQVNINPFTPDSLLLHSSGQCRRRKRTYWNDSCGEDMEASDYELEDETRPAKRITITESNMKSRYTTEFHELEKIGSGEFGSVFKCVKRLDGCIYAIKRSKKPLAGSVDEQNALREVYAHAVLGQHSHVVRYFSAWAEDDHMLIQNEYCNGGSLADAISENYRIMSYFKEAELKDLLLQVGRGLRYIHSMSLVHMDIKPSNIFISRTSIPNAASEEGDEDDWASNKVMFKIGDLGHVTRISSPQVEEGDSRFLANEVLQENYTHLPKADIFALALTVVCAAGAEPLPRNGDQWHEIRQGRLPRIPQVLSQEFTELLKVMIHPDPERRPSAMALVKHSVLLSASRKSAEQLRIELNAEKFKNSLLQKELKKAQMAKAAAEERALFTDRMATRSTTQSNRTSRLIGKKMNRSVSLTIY

PAK1 (human) = PAK1 (human) (UniProt Q13153)

Sequence of MAPK9 (human) (P45984 whole entry, looked up): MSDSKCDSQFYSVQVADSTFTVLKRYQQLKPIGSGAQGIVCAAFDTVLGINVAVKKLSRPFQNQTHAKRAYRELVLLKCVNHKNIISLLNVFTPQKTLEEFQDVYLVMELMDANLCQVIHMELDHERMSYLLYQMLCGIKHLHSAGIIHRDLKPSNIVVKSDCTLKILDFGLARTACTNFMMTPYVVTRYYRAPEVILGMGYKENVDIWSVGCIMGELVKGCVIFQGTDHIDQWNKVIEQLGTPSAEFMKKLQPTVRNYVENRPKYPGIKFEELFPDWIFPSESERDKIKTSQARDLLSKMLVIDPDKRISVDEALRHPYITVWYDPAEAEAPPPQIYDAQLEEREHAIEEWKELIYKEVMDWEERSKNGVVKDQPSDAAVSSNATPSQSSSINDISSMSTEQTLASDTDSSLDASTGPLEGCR
Sequence of PRKCZ (human) (Q05513 whole entry, looked up): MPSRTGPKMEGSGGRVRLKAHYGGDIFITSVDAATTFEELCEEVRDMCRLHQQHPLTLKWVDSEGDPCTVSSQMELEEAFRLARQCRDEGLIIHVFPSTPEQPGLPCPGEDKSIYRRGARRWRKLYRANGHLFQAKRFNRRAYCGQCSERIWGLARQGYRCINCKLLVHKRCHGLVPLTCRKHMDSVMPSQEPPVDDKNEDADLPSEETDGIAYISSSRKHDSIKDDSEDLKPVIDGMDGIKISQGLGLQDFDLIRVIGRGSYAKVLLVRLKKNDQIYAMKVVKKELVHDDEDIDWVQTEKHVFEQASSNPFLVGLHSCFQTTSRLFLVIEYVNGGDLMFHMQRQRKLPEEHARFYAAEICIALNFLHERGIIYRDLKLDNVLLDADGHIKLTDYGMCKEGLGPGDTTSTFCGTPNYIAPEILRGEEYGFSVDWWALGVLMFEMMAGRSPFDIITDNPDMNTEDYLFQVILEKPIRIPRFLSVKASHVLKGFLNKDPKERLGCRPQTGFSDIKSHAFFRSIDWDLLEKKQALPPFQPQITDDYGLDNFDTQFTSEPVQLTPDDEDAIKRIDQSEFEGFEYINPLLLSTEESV

SMILES: CSc1nc(-c2ccc(F)cc2)c(-c2ccnc(NC(C)c3ccccc3)c2)[nH]1 (stereo not drawn)
- residual activity (PRKCZ (human)): 111%
- residual activity (NEK11 (human)): 108%
- residual activity (MAPK9 (human)): 31.1%
- residual activity (CAMK4 (human)): 106%
- residual activity (MET (human)): 116%
- residual activity (PAK6 (human)): 93.5%
- residual activity (HIPK2 (human)): 99.9%
- residual activity (NTRK2 (human)): 88.5%
- residual activity (CDC42BPB (human)): 98.8%
- residual activity (VRK1 (human)): 94.1%
- residual activity (MAP3K3 (human)): 80%
- residual activity (MAP3K11 (human)): 101%
- residual activity (PAK3 (human)): 94.5%
- residual activity (TXK (human)): 93.1%
- residual activity (STK11 (human)): 95.4%
- residual activity (RPS6KA5 KD2 (human)): 97.3%
- residual activity (DAPK3 (human)): 94.3%
- residual activity (MYLK2 (human)): 102%
- residual activity (RET (human)): 101%
- residual activity (STK24 (human)): 113%
- residual activity (PRKCB2 (human)): 101%
- residual activity (MELK (human)): 94.2%
- residual activity (MAPKAPK5 (human)): 115%
- residual activity (BRSK1 (human)): 84.6%
- residual activity (EPHA4 (human)): 93.1%
- residual activity (ADRBK2 (human)): 96.4%
- residual activity (HIPK4 (human)): 95.2%
- residual activity (ZAP70 (human)): 102%
- residual activity (ROCK2 (human)): 95.3%
- residual activity (IGF1R (human)): 101%
- residual activity (MARK4 (human)): 74.6%
- residual activity (CAMKK1 (human)): 104%
- residual activity (ALK (human)): 93.3%
- residual activity (PRKCE (human)): 87.6%
- residual activity (MKNK2 (human)): 105%
- residual activity (MARK1 (human)): 95.3%
- residual activity (CDK2 CCNA2 (human)): 96.8%
- residual activity (SGK2 (human)): 96.1%
- residual activity (PHKG1 (human)): 91.8%
- residual activity (WNK3 (human)): 97.6%
- residual activity (WEE1 (human)): 76.1%
- residual activity (PAK1 (human)): 97.7%

SMILES: COc1cc2ncnc(Nc3ccc(F)c(Cl)c3)c2cc1OCCCN1CCOCC1
- residual activity (PRKCZ (human)): 92.5%
- residual activity (NEK11 (human)): 109%
- residual activity (MAPK9 (human)): 95.5%
- residual activity (CAMK4 (human)): 93.3%
- residual activity (MET (human)): 92.4%
- residual activity (PAK6 (human)): 105%
- residual activity (HIPK2 (human)): 99.7%
- residual activity (NTRK2 (human)): 98.2%
- residual activity (VRK1 (human)): 99.3%
- residual activity (MAP3K3 (human)): 107%
- residual activity (MAP3K11 (human)): 102%
- residual activity (PAK3 (human)): 106%
- residual activity (TXK (human)): 83.2%
- residual activity (STK11 (human)): 106%
- residual activity (RPS6KA5 KD2 (human)): 100%
- residual activity (DAPK3 (human)): 95.7%
- residual activity (MYLK2 (human)): 99.2%
- residual activity (RET (human)): 76.9%
- residual activity (STK24 (human)): 102%
- residual activity (PRKCB2 (human)): 100%
- residual activity (MELK (human)): 77.7%
- residual activity (MAPKAPK5 (human)): 92.7%
- residual activity (BRSK1 (human)): 92.5%
- residual activity (EPHA4 (human)): 90.2%
- residual activity (ADRBK2 (human)): 97.9%
- residual activity (HIPK4 (human)): 90.4%
- residual activity (ZAP70 (human)): 96.5%
- residual activity (ROCK2 (human)): 90.8%
- residual activity (IGF1R (human)): 92.3%
- residual activity (MARK4 (human)): 94.2%
- residual activity (CAMKK1 (human)): 93.8%
- residual activity (ALK (human)): 98.8%
- residual activity (PRKCE (human)): 97.3%
- residual activity (MKNK2 (human)): 54.1%
- residual activity (MARK1 (human)): 116%
- residual activity (CDK2 CCNA2 (human)): 95.9%
- residual activity (SGK2 (human)): 117%
- residual activity (PHKG1 (human)): 68.8%
- residual activity (WNK3 (human)): 102%
- residual activity (WEE1 (human)): 93.8%
- residual activity (PAK1 (human)): 104%
